In PubChem BioAssay AID1259411 (Chemical Carcinogenesis Research Information System (CCRIS), 2018):
Activity calls are given as the source filed them. No rule for the calls is given here.

Tested on: rodent carcinogenicity bioassays, tumor incidence
Assay: CCRIS carcinogenicity studies
Settings: Dose: 0, Dose: 0
How it was run: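 NCI-built, expert-reviewed records of carcinogenicity and related test outcomes (mutagenicity, tumor promotion/inhibition) compiled from published and report sources, historical span 1985-2011, not updated.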

With `O[C@H]1C=C2c3c(cccc3[C@@H]1O)-c1ccc3ccccc3c12` the carcinogen call (Species: MOUSE, Strain/Sex: CD-1/FEMALE, Route: INTRAPERITONEAL, 0.275, 1.1 UMOL (TOTAL DOSE) ADMINISTERED OVER DAYS 1, 8, AND 15 OF LIFE (STUDY DURATION: 52 WEEKS), 0.275, 1.1 UMOL (TOTAL DOSE) ADMINISTERED OVER DAYS 1, 8, AND 15 OF LIFE (STUDY DURATION: 52 WEEKS), Tumor Site: Type of Lesion: LUNG: ALVEOLAR/BRONCHIOLAR CARCINOMA) was “active; positive” and the carcinogen call (Species: MOUSE, Strain/Sex: CD-1/MALE, Route: INTRAPERITONEAL, 0.275, 1.1 UMOL (TOTAL DOSE) ADMINISTERED OVER DAYS 1, 8, AND 15 OF LIFE (STUDY DURATION: 52 WEEKS), 0.275, 1.1 UMOL (TOTAL DOSE) ADMINISTERED OVER DAYS 1, 8, AND 15 OF LIFE (STUDY DURATION: 52 WEEKS), Tumor Site: Type of Lesion: LUNG: ALVEOLAR/BRONCHIOLAR CARCINOMA, LIVER: ADENOMA OR CARCINOMA) was “active; positive”.

With `CCCCNC(=O)n1c(NC(=O)OC)nc2ccccc21` the carcinogen call (Species: Mouse, Strain/Sex: CD-1/Female (80/group), Route: Oral, 500, 1500, 7500 for 37 wk reduced to 5000 ppm in feed for 2 yr, 500, 1500, 7500 for 37 wk reduced to 5000 ppm in feed for 2 yr, Tumor Site: Type of Lesion: Liver: Hepatocellular adenoma (2/64, 2/60, 7/73, 7/68), Hepatocellular carcinoma (2/64, 7/60, 6/73, 14/68), Combined (4/, Tumor Site: Type of Lesion: Liver: Hepatocellular adenoma (2/64, 2/60, 7/73, 7/68), Hepatocellular carcinoma (2/64, 7/60, 6/73, 14/68), Combined (4/) was “active; positive; purity 99%; additional study details in california epa department of p” and the carcinogen call (Species: Mouse, Strain/Sex: CD-1/Male (80/group), Route: Oral, 500, 1500, 7500 for 37 wk reduced to 5000 ppm in feed for 2 yr, 500, 1500, 7500 for 37 wk reduced to 5000 ppm in feed for 2 yr, Tumor Site: Type of Lesion: Liver: Hepatocellular adenoma (9/60, 9/75, 11/73, 10/76), Hepatocellular carcinoma (16/60, 26/75, 41/73, 17/76), Combine, Tumor Site: Type of Lesion: Liver: Hepatocellular adenoma (9/60, 9/75, 11/73, 10/76), Hepatocellular carcinoma (16/60, 26/75, 41/73, 17/76), Combine) was “active; positive; purity 99%; additional study details in california epa department of p”.

In the case of `CCN(CC)c1ccc2c(-c3ccc(S(=O)(=O)O)cc3S(=O)(=O)[O-])c3ccc(=[N+](CC)CC)cc-3oc2c1`, the carcinogen call (Species: RAT, Strain/Sex: F344/FEMALE, Route: ORAL, 2.5, 5% IN DIET FOR 106 WK (STUDY DURATION: 106 WK), 2.5, 5% IN DIET FOR 106 WK (STUDY DURATION: 106 WK)) is reported as “inactive; negative” and the carcinogen call (Species: RAT, Strain/Sex: F344/MALE, Route: ORAL, 2.5, 5% IN DIET FOR 106 WK (STUDY DURATION: 106 WK), 2.5, 5% IN DIET FOR 106 WK (STUDY DURATION: 106 WK)) is reported as “inactive; negative”.

`ClC=C(Cl)Cl` was tested, and the carcinogen call (Species: MOUSE, Strain/Sex: B6C3F1/FEMALE, Route: GAVAGE, 869, 1739 MG/KG/D, TWA, 869, 1739 MG/KG/D, TWA, Tumor Site: Type of Lesion: LIVER: HEPATOCELLULAR CARCINOMA) was “active; positive”, the carcinogen call (Species: MOUSE, Strain/Sex: B6C3F1/FEMALE, Route: GAVAGE, 1000 MG/KG IN CORN OIL 5 D/WK FOR 103 WK (STUDY DURATION: 107 WK), Tumor Site: Type of Lesion: LIVER: ADENOMA, CARCINOMA) was “active; positive” and the carcinogen call (Species: MOUSE, Strain/Sex: B6C3F1/FEMALE, Route: INHALATION, 100, 300, 600 PPM 7 HR/D 5 D/WK FOR 78 WK (STUDY DURATION: LIFETIME), 100, 300, 600 PPM 7 HR/D 5 D/WK FOR 78 WK (STUDY DURATION: LIFETIME), Tumor Site: Type of Lesion: LUNG: TUMOR) was “active; positive”. For the same molecule, the carcinogen call (Species: MOUSE, Strain/Sex: B6C3F1/MALE, Route: GAVAGE, 1000 MG/KG IN CORN OIL 5 D/WK FOR 103 WK (STUDY DURATION: 107 WK), Tumor Site: Type of Lesion: LIVER: ADENOMA, CARCINOMA) was “active; positive”, the carcinogen call (Species: MOUSE, Strain/Sex: B6C3F1/MALE, Route: GAVAGE, 1169, 2339 MG/KG/D, TWA, 1169, 2339 MG/KG/D, TWA, Tumor Site: Type of Lesion: LIVER: HEPATOCELLULAR CARCINOMA) was “active; positive” and the carcinogen call (Species: MOUSE, Strain/Sex: B6C3F1/MALE, Route: INHALATION, 100, 300, 600 PPM 7 HR/D 5 D/WK FOR 78 WK (STUDY DURATION: LIFETIME), 100, 300, 600 PPM 7 HR/D 5 D/WK FOR 78 WK (STUDY DURATION: LIFETIME)) was “inactive; negative”. The carcinogen call (Species: MOUSE, Strain/Sex: ICR/MALE, FEMALE, Route: GAVAGE, 10 MG/KG IN CORN OIL 5 D/WK FOR 18 MO (DOSES REDUCED BY FACTOR OF 2 FROM 40TH WEEK)(STUDY DURATION: 24 MO)) was “inactive; negative”, the carcinogen call (Species: MOUSE, Strain/Sex: SWISS/FEMALE, Route: INHALATION, 100, 300, 600 PPM 7 HR/D 5 D/WK FOR 78 WK (STUDY DURATION: LIFETIME), 100, 300, 600 PPM 7 HR/D 5 D/WK FOR 78 WK (STUDY DURATION: LIFETIME)) was “inactive; negative” and the carcinogen call (Species: MOUSE, Strain/Sex: SWISS/MALE, Route: INHALATION, 100, 300, 600 PPM 7 HR/D 5 D/WK FOR 78 WK (STUDY DURATION: LIFETIME), 100, 300, 600 PPM 7 HR/D 5 D/WK FOR 78 WK (STUDY DURATION: LIFETIME), Tumor Site: Type of Lesion: LUNG: TUMOR, LIVER: HEPATOMA) was “active; positive”. The carcinogen call (Species: RAT, Strain/Sex: F344/FEMALE, Route: GAVAGE, 500, 1000 MG/KG IN CORN OIL 5 D/WK FOR 103 WK (STUDY DURATION: 107 WK), 500, 1000 MG/KG IN CORN OIL 5 D/WK FOR 103 WK (STUDY DURATION: 107 WK)) was “inactive; negative”, the carcinogen call (Species: RAT, Strain/Sex: SPRAGUE-DAWLEY/FEMALE, Route: GAVAGE, 50, 250 MG/KG BW IN OLIVE OIL 1/D 4-6 D/WK FOR 52 WK (STUDY DURATION: LIFETIME), 50, 250 MG/KG BW IN OLIVE OIL 1/D 4-6 D/WK FOR 52 WK (STUDY DURATION: LIFETIME), Tumor Site: Type of Lesion: [BRAIN WAS ONLY SITE EVALUATED]) was “inactive; negative” and the carcinogen call (Species: RAT, Strain/Sex: SPRAGUE-DAWLEY/FEMALE, Route: INHALATION, 100, 300, 600 PPM 7 HR/D 5 D/WK FOR 104 WK (STUDY DURATION: LIFETIME), 100, 300, 600 PPM 7 HR/D 5 D/WK FOR 104 WK (STUDY DURATION: LIFETIME)) was “inactive; negative”. For the same molecule, the carcinogen call (Species: RAT, Strain/Sex: SPRAGUE-DAWLEY/MALE, Route: GAVAGE, 50, 250 MG/KG BW IN OLIVE OIL 1/D 4-6 D/WK FOR 52 WK (STUDY DURATION: LIFETIME), 50, 250 MG/KG BW IN OLIVE OIL 1/D 4-6 D/WK FOR 52 WK (STUDY DURATION: LIFETIME), Tumor Site: Type of Lesion: [BRAIN WAS ONLY SITE EVALUATED]) was “inactive; negative” and the carcinogen call (Species: RAT, Strain/Sex: SPRAGUE-DAWLEY/MALE, Route: INHALATION, 100, 300, 600 PPM 7 HR/D 5 D/WK FOR 104 WK (STUDY DURATION: LIFETIME), 100, 300, 600 PPM 7 HR/D 5 D/WK FOR 104 WK (STUDY DURATION: LIFETIME), Tumor Site: Type of Lesion: TESTIS: LEYDIG CELL TUMOR) was “active; positive”.

`CCO[Si](CCCOCC1CO1)(OCC)OCC` (stereo unspecified) was tested, and the carcinogen call (Species: MOUSE, Strain/Sex: C3H/MALE, Route: DERMAL, 2 MG IN ACETONE 3/WK FOR DURATION OF STUDY (STUDY DURATION: LIFETIME)) was “inactive; negative”.
